What was measured:
human mAChR M1 [1] = target: T1, human mAChR M1 (Homo sapiens, UniProt P11229); experiment: mAChR M1 cell-based functional assay (calcium mobilization), agonist activity upon compound addition; conditions: CHO-K1 cells expressing hM1; for EC50: compound alone, before acetylcholine addition; for Emax: relative to the maximum for acetylcholine
T1 construct: host or cells: CHO-K1 cells (ATCC), stably transfected using Lipofectamine2000
T1 sequence (P11229 1-460): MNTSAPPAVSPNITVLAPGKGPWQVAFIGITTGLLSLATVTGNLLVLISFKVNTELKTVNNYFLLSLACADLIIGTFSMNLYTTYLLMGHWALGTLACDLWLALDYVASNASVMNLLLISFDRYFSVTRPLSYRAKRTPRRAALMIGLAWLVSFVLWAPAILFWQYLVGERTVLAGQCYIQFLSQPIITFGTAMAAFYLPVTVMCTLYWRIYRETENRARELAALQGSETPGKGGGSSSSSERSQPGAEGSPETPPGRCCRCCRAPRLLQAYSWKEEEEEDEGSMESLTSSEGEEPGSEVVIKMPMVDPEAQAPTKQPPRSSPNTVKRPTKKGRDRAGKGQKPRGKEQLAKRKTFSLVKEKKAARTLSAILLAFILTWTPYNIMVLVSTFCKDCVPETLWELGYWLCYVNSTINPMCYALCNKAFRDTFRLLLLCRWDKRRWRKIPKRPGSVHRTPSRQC
Procedure, shortened: (§1)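 Fluorescence ratio calcium read-out (Fluo-4 AM, FDSS 6000) in human M1-expressing CHO-K1 cells. Agonist activity taken as concentration-dependent rise after compound addition; potentiation as enhancement of a subsequent EC20 acetylcholine challenge. Curves from 11-point threefold dilutions fitted by four-parameter logistic; Emax expressed versus acetylcholine maximum.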

human mAChR M1 [2] = target: T1, human mAChR M1; experiment: mAChR M1 cell-based functional assay (calcium mobilization), PAM activity: increase in the EC20 acetylcholine response; conditions: CHO-K1 cells expressing hM1; potentiation of EC20 acetylcholine response
Procedure, shortened: as §1

Compound | EC50 (human mAChR M1 [1]) | Emax (human mAChR M1 [1]) | EC50 (human mAChR M1 [2]) | Emax (human mAChR M1 [2])
Cn1cc(-c2ccc(Cn3cc(C(=O)N[C@H]4CCCC[C@@H]4O)c4nccnc4c3=O)c(F)c2)cn1 [Compound A54, 6-(2-fluoro-4-(1-methyl-1H-pyrazol-4-yl)benzyl)-N-((1S,2S)-2-hydroxycyclohexyl)-5-oxo-5,6-dihydropyrido[3,4-b]pyrazine-8-carboxamide] | > 10 µM | 26% | 2.37 µM | 62%
Cc1cn2c(=O)n(Cc3c(F)cc(-c4cccc5nn(C)cc45)cc3F)cc(C(=O)N[C@H]3CCCC[C@@H]3O)c2n1 [Compound B30, 6-(2,6-difluoro-4-(2-methyl-2H-indazol-4-yl)benzyl)-N-((1S,2S)-2-hydroxycyclohexyl)-2-methyl-5-oxo-5,6-dihydroimidazo[1,2-c]pyrimidine-8-carboxamide] | > 10 µM | < 5% | 5.89 µM | 27%
Cc1cn2c(=O)n(Cc3ccc(-c4ccn(C)n4)cc3F)cc(C(=O)N[C@H]3CCOC[C@@H]3O)c2n1 [Compound B25, 6-(2-fluoro-4-(1-methyl-1H-pyrazol-3-yl)benzyl)-N-((3R,4S)-3-hydroxytetrahydro-2H-pyran-4-yl)-2-methyl-5-oxo-5,6-dihydroimidazo[1,2-c]pyrimidine-8-carboxamide] | > 10 µM | < 5% | 9.29 µM | 33%
Cn1cc(-c2ccc(Cn3cc(C(=O)N[C@H]4CCCCC[C@@H]4O)c4ncccc4c3=O)cn2)cn1 [Compound A18, N-((1S,2S)-2-hydroxycycloheptyl)-6-((6-(1-methyl-1H-pyrazol-4-yl)pyridin-3-yl)methyl)-5-oxo-5,6-dihydro-1,6-naphthyridine-8-carboxamide] | > 10 µM | < 5% | 1.66 µM | 60%
Cn1ccc(-c2ccc(Cn3cc(C(=O)N[C@@H]4CC[C@H]4O)c4nccn4c3=O)c(F)c2)n1 [Compound B4, 6-(2-fluoro-4-(1-methyl-1H-pyrazol-3-yl)benzyl)-N-((1R,2R)-2-hydroxycyclobutyl)-5-oxo-5,6-dihydroimidazo[1,2-c]pyrimidine-8-carboxamide] | > 10 µM | < 5% | 3.22 µM | 52%
CC1(C)COCCC1NC(=O)c1cn(Cc2ccc(-n3cccn3)cc2)c(=O)c2ccoc12 (stereo not shown) [Compound D1, 5-(4-(1H-pyrazol-1-yl)benzyl)-N-(3,3-dimethyltetrahydro-2H-pyran-4-yl)-4-oxo-4,5-dihydrofuro[3,2-c]pyridine-7-carboxamide] | > 10 µM | < 5% | > 10 µM | 25%
Cn1nccc1-c1cc(F)c(Cn2cc(C(=O)N[C@H]3CCOC[C@@H]3O)c3ncccc3c2=O)c(F)c1 [Compound A47, 6-(2,6-difluoro-4-(1-methyl-1H-pyrazol-5-yl)benzyl)-N-((3R,4S)-3-hydroxytetrahydro-2H-pyran-4-yl)-5-oxo-5,6-dihydro-1,6-naphthyridine-8-carboxamide] | > 10 µM | < 5% | 1.09 µM | 57%
Cc1cn2c(=O)n(Cc3ccc(-c4cnn(C)c4)cc3F)cc(C(=O)N[C@H]3CCCC[C@@H]3O)c2n1 [Compound B24, 6-(2-fluoro-4-(1-methyl-1H-pyrazol-4-yl)benzyl)-N-((1S,2S)-2-hydroxycyclohexyl)-2-methyl-5-oxo-5,6-dihydroimidazo[1,2-c]pyrimidine-8-carboxamide] | > 10 µM | < 5% | ≥ 10 µM | 41%
O=C(N[C@H]1CCOC[C@@H]1O)c1cn(Cc2c(F)cc(-c3cncs3)cc2F)c(=O)c2cccnc12 [Compound A49, 6-(2,6-Difluoro-4-(thiazol-5-yl)benzyl)-N-((3R,4S)-3-hydroxytetrahydro-2H-pyran-4-yl)-5-oxo-5,6-dihydro-1,6-naphthyridine-8-carboxamide] | > 10 µM | < 5% | 0.98 µM | 65%
Cc1cn2c(=O)n(Cc3ccc(-c4ccn(C)n4)cc3F)cc(C(=O)N[C@H]3CCCC[C@@H]3O)c2n1 [Compound B26, 6-(2-fluoro-4-(1-methyl-1H-pyrazol-3-yl)benzyl)-N-((1S,2S)-2-hydroxycyclohexyl)-2-methyl-5-oxo-5,6-dihydroimidazo[1,2-c]pyrimidine-8-carboxamide] | > 10 µM | < 5% | 5.53 µM | 28%
O=C(N[C@H]1CCCCC[C@@H]1O)c1cn(Cc2ccc(-n3cccn3)cc2)c(=O)c2ccoc12 [Compound D5, 5-(4-(1H-pyrazol-1-yl)benzyl)-N-((1S,2S)-2-hydroxycycloheptyl)-4-oxo-4,5-dihydrofuro[3,2-c]pyridine-7-carboxamide] | > 10 µM | < 5% | > 10 µM | 58%
O=C(N[C@H]1CCOC[C@@H]1O)c1cn(Cc2ccc(-c3cscn3)cc2)c(=O)c2cccnc12 [Compound A57, N-((3R,4S)-3-hydroxytetrahydro-2H-pyran-4-yl)-5-oxo-6-(4-(thiazol-4-yl)benzyl)-5,6-dihydro-1,6-naphthyridine-8-carboxamide] | > 10 µM | 25% | 1.15 µM | 68%
Cn1cc2c(-c3cc(F)c(Cn4cc(C(=O)NC5CCOCC5)c5nccnc5c4=O)c(F)c3)cccc2n1 [Compound A70, 6-(2,6-difluoro-4-(2-methyl-2H-indazol-4-yl)benzyl)-5-oxo-N-(tetrahydro-2H-pyran-4-yl)-5,6-dihydropyrido[3,4-b]pyrazine-8-carboxamide] | > 10 µM | < 5% | 5.5 µM | 45%
Cc1nc(-c2ccc(Cn3cc(C(=O)N[C@H]4CCOC[C@@H]4O)c4ncccc4c3=O)cc2)co1 [Compound A19, N-((3R,4S)-3-hydroxytetrahydro-2H-pyran-4-yl)-6-(4-(2-methyloxazol-4-yl)benzyl)-5-oxo-5,6-dihydro-1,6-naphthyridine-8-carboxamide] |  | 20% | 2.49 µM | 67%
Cc1cn2c(=O)n(Cc3c(F)cc(-c4cccc5nn(C)cc45)cc3F)cc(C(=O)N[C@H]3CCOC[C@@H]3O)c2n1 [Compound B29, 6-(2,6-difluoro-4-(2-methyl-2H-indazol-4-yl)benzyl)-N-((3R,4S)-3-hydroxytetrahydro-2H-pyran-4-yl)-2-methyl-5-oxo-5,6-dihydroimidazo[1,2-c]pyrimidine-8-carboxamide] | > 10 µM | < 5% | 4.31 µM | 40%
Cn1cc(-c2ccc(Cn3cc(C(=O)N[C@H]4CCCCC[C@@H]4O)c4nccnc4c3=O)c(F)c2)cn1 [Compound A78, 6-(2-fluoro-4-(1-methyl-1H-pyrazol-4-yl)benzyl)-N-((1S,2S)-2-hydroxycycloheptyl)-5-oxo-5,6-dihydropyrido[3,4-b]pyrazine-8-carboxamide] |  | 5% | 2.98 µM | 67%
Cn1cc(-c2ccc(Cn3cc(C(=O)N[C@H]4CCC[C@@H]4O)c4ncccc4c3=O)cn2)cn1 [Compound A17, N-((1S,2S)-2-hydroxycyclopentyl)-6-((6-(1-methyl-1H-pyrazol-4-yl)pyridin-3-yl)methyl)-5-oxo-5,6-dihydro-1,6-naphthyridine-8-carboxamide] | > 10 µM | < 5% | ≥ 10 µM | 55%
Cn1cc2c(-c3cc(F)c(Cn4cc(C(=O)NC5CC6(COC6)C5)c5occc5c4=O)c(F)c3)cccc2n1 [Compound D24, 5-(2,6-difluoro-4-(2-methyl-2H-indazol-4-yl)benzyl)-4-oxo-N-(2-oxaspiro[3.3]heptan-6-yl)-4,5-dihydrofuro[3,2-c]pyridine-7-carboxamide] | > 10 µM | < 5% | 2.48 µM | 70%
Cn1cc(-c2ccc(Cn3cc(C(=O)N[C@H]4CCCCC[C@@H]4O)c4ncncc4c3=O)c(F)c2)cn1 [Compound A91, 6-(2-fluoro-4-(1-methyl-1H-pyrazol-4-yl)benzyl)-N-((1S,2S)-2-hydroxycycloheptyl)-5-oxo-5,6-dihydropyrido[4,3-d]pyrimidine-8-carboxamide] | > 10 µM | < 5% | ≥ 10 µM | 34%
Cn1ccc(-c2ccc(Cn3cc(C(=O)N[C@@H]4CC[C@H]4O)c4ncccc4c3=O)c(F)c2)n1 [Compound A4, 6-(2-fluoro-4-(1-methyl-1H-pyrazol-3-yl)benzyl)-N-((1R,2R)-2-hydroxycyclobutyl)-5-oxo-5,6-dihydro-1,6-naphthyridine-8-carboxamide] | > 10 µM | < 5% | 3.45 µM | 42%
Cn1cnc2c(C(=O)N[C@H]3CCCC[C@@H]3O)cn(Cc3ccc(-n4cccn4)cc3)c(=O)c21 [Compound C6, 5-(4-(1H-pyrazol-1-yl)benzyl)-N-((1S,2S)-2-hydroxycyclohexyl)-3-methyl-4-oxo-4,5-dihydro-3H-imidazo[4,5-c]pyridine-7-carboxamide] | > 10 µM | < 5% | 0.17 µM | 43%
